In patent US20260191887A1, “METHODS OF TREATING INFLAMMATION” (THERAPEUTIKOS, INC., priority 2022, published 2026):

Columns and labels:
IL-6 [1] = assay: IL-6 ELISA in LPS-activated RAW264.7 macrophages; format: cell-based, mouse; settings: LPS 100 ng/mL, concentrations up to 5 mM, n=8
Method: (§1) Mouse RAW264.7 macrophage cell line (ATCC; Manassas, VA, USA) was maintained in DMEM culture medium containing 10% FBS and 1% antibiotic mix. For cell treatment, the test drugs at different doses were added to the culture 0.5 h prior to addition of 100 ng/mL LPS (Sigma-Aldrich Co., St Louis, MO, USA) and then cells were co-treated with LPS for 24 hours.
The amounts of IL-6 in culture medium from different treatments were measured by a commercial ELISA kit (Sigma-Aldrich), following the instructions provided by the manufacturer. Briefly, cells were seeded on a 96-well plate and various treatments were performed. The culture medium were collected and mixed with different assay reagents step by step. The resultant solutions were read at 450 nm on a microplate reader. There were eight repeats in each group (n=8). *P<0.05 vs LPS group. The experiment was duplicated.

IL-6 [2] = assay: Serum IL-6 ELISA in LPS-induced systemic inflammation in mice; format: in vivo, mouse; settings: LPS 10 mg/kg I.P., compound 300 mg/kg I.V.
Method: (§2) Male C57BL6/J mice (8 to 10-week-old, 20-25 g) purchased from Charles River were used in this study. Mice were kept in the animal facility of the School of Medicine, University of Virginia (UVa). All experimental procedures were approved by the Ethics Committee on Animal Research of Medical School, UVa and are in accordance with the Guidelines of the National Council for Animal Experimentation Control (CONCEA).
(§3) Moderate endotoxemia by LPS was induced with a single dose (10 mg/Kg, i.p.) of LPS (Escherichia coli 0111:B4, Sigma Chemical Co., St. Louis, MO, United States), 30 min after intravenous injection of NAG or NDX1 or NDX2 or the vehicle (saline). Two doses (200 mg/kg body weight and 300 mg/kg body weight) were tested for NAG, NDX1 and NDX2. Animals without any treatment were used to obtain the baseline data. Six hours after LPS treatment, inflammation assays were performed as described below. A total of 40 animals were randomly divided into 5 groups (8 mice/group): non-treatment (NT); 10 mg/Kg LPS plus saline (LPS); 10 mg/Kg LPS plus NAG (LPS+NAG); 10 mg/Kg LPS plus NDX1 (LPS+NDX1); and 10 mg/Kg LPS plus NDX2 (LPS+NDX2). The experiment was duplicated.
(§4) TNFa and IL-6 concentrations in the serum were determined using enzyme-linked immunosorbent assay (ELISA) according to the manufacturer's instructions. […] The resultant solutions were read at 450 nm on a microplate reader.

[3] = test system: primary mouse peritoneal macrophages; assay: WST-1 assay in LPS-activated primary mouse peritoneal macrophages; format: cell-based; settings: LPS 100 ng/mL, doses of up to 1 mM, 24 h, n=8
Method: • 1. Non treatment (NT) • 2. LPS 100 ng/mL • 3. LPS 100 ng/mL+NDX1 dose1* • 4. LPS 100 ng/mL+NDX1 dose2* • 5. LPS 100 ng/mL+NDX1 dose3* • 6. LPS 100 ng/mL+NDX2 dose1 • 7. LPS 100 ng/mL+NDX2 dose2 • 8. LPS 100 ng/mL+NDX2 dose3 • 9. LPS 100 ng/mL+NAG dose2 • 10. LPS 100 ng/mL+NAG dose3 (*dose 1, 2, 3 were selected as low, middle and high dose with no cytotoxicity from the cytotoxic assay) The peritoneal macrophages were isolated from peritoneal cavity, and cultured in Dulbecco's modified Eagle's medium (DMEM, Gibco BRL, Gaithersburg, MD) supplemented with 10% fetal bovine serum (FBS) (Hyclone Laboratories, Logan, VT) and 100 IU/mL penicillin G and 100 µg/mL streptomycin, in a humidified atmosphere of 5% carbon dioxide at 37° C. Cells will grow on a 96-well plate and co-treated with 100 ng/ml LPS (Sigma-Aldrich) 0.5 hours after addition of BNAGs and NAG. Twenty-four hours later, the cell number was counted by using the WST-1 kit (Fisher Scientific). After removal of the supernatant, […] new medium was added into each cell. Then 15 μl Cell Proliferation Reagent WST-1 was added and incubated with cells for 3 hours in dark with a humidified atmosphere of 5% carbon dioxide at 37° C. Each sample was determined at 450 nm on a microplate reader.

Cox-2 = assay: Western blot of Cox-2 expression in LPS-activated RAW264.7 macrophages; format: cell-based, mouse; settings: LPS 100 ng/mL; NDX1 0.1 and 1 mM, NDX2 and NAG 0.5 and 5 mM
Method: as §1
(§5) The cellular proteins were prepared from cells growing on a 6-well plate (approximately 500,000/well) using a commercial cell lysis buffer (Thermo Scientific). Then the protein concentration was determined using the Bradford protein assay kit (Bio-Rad, Hercules, CA, USA). The samples containing 100 μg proteins were run on 10% SDS-polyacrylamide gels at a […] and electro-transferred to nitrocellulose membranes (Thermo Scientific) at a constant voltage of 10 V overnight. […] Using the magic wand tool from the tool palette, the area of each band was selected, and the mean histogram were recorded and then charted. […]

[4] = test system: leukocytes migration to the peritoneal cavity; assay: Leukocyte migration to the peritoneal cavity in LPS-induced systemic inflammation in mice; format: in vivo, mouse; settings: LPS 10 mg/kg I.P., compound 200 or 300 mg/kg I.V., vs LPS alone
Method: as §2, §3
Peritoneal cells were collected by lavage with ice-cold Dulbecco's modified Eagle's medium (DMEM, Gibco BRL, Gaithersburg, MD). […]

mouse iNOS = assay: Western blot of iNOS expression in LPS-activated RAW264.7 macrophages; format: cell-based; settings: LPS 100 ng/mL; NDX1 0.1 and 1 mM, NDX2 and NAG 0.5 and 5 mM
Method: as §1, §5

TNFa = assay: Serum TNFa ELISA in LPS-induced systemic inflammation in mice; format: in vivo, mouse; settings: LPS 10 mg/kg I.P., compound 300 mg/kg I.V.
Method: as §2, §3, §4

For `CC(=O)N[C@H]1C(O)O[C@H](CO)[C@@H](O)[C@@H]1O` (stereo partly shown) [NAG, N-acetyl glucosamine], the “reduction of IL-6 production (ELISA)” value (IL-6 [1]) was “could significantly reduce IL-6 production”, the “decrease of serum level of IL-6” value (IL-6 [2]) was “significantly decrease serum levels” and the “effect on cell number (WST-1) compared with LPS alone” value [3] was “no significant effect on cell number”. The “rank order for inhibition of Cox-2 expression (western blot)” value (Cox-2) was “NAG>NDX2>NDX1”, the “decrease of leukocytes migration to the peritoneal cavity (WST-1 test or DAPI staining)” value [4] was “neither NAG nor NDX2 did” and the “rank order for inhibition of iNOS expression (western blot)” value (mouse iNOS) was “NDX1>NDX2>NAG”. The “decrease of serum level of TNFa” value (TNFa) was “significantly decrease serum levels”.
